Measurements from US20260159512A1, “BCAT2 INHIBITORS” (AGIOS PHARMACEUTICALS, INC., priority 2021, published 2026).

Legend:
[1] = biological target: T1, BCAT2 (Homo sapiens, UniProt O15382); assay: BCAT2 in vitro cell inhibition using engineered A549 cells (KMV cell assay, 13C6-KMV by LC-MS/MS); type: cell-based; design: The result was an engineered A549 cell line that expressed endogenous BCAT2; endogenous in cells; host or cells: A549 cells with MUT and BCAT1 knocked out by CRISPR/CAS9; key to BCAT2 Cell Inhibition: A: less than or equal to 0.100 μM; B: greater than 0.100 and less than or equal to 0.500 μM; C: greater than 0.500 and less than or equal to 1.000 μM; d: greater than 1.000 μM; E: no fit; details: average where tested multiple times
T1 sequence (O15382 28-392): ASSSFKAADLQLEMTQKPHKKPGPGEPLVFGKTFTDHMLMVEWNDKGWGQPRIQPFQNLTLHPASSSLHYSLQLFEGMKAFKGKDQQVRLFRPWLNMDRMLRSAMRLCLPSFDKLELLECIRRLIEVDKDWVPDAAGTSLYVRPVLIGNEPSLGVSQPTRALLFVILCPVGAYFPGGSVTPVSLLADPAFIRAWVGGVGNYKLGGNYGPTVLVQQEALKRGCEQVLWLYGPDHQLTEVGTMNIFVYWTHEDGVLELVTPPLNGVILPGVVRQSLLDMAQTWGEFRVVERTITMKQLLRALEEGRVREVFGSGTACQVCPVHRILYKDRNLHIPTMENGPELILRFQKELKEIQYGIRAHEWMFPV

[2] = biological target: T1, BCAT2; assay: BCAT2 in vitro enzyme inhibition assay (resazurin/diaphorase-coupled fluorescence); type: biochemical; details: average where tested multiple times
Summary of the method: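 Coupled fluorescence readout: glutamate formed from L-leucine/α-ketoglutarate transamination drives GDH/NAD/diaphorase reduction of resazurin (Ex 540/Em 590). Human BCAT2 was first exposed 1 h at room temperature to compound, top final 100 μM in 3-fold, 10-point series; substrate reaction ran 1 h before SDS quench, in technical duplicate with DMSO max and enzyme-free min controls.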

Compound	IC50 [1] [µM]	IC50 [2] [µM]	BCAT2 Cell Inhibition [1]
CC(C)Cc1nc2cnc(-n3cncn3)cc2n1[C@@H]1CCC[C@H](NC(=O)c2ncc(Cl)s2)C1 [Example 323, 5-chloro-N-((1S,3R)-3-(2-isobutyl-6-(1H-1,2,4-triazol-1-yl)-1H-imidazo[4,5-c]pyridin-1-yl)cyclohexyl)thiazole-2-carboxamide]	> 1	0.1 to 0.5	–
O=C(N[C@@H]1C[C@@H](O)C[C@H](n2c(-c3ccccc3F)nc3cnccc32)C1)c1ncc(Cl)s1 [Example 271, 5-chloro-N-((1S,3R,5R)-3-(2-(2-fluorophenyl)-1H-imidazo[4,5-c]pyridin-1-yl)-5-hydroxycyclohexyl)thiazole-2-carboxamide]	–	> 1	E
CC(C)Cc1nc2cnc(-c3ccccn3)cc2n1[C@H]1CCC[C@@H](NC(=O)c2ncc(Cl)s2)[C@@H]1O [Example 236, 5-chloro-N-((1R,2S,3S)-2-hydroxy-3-(2-isobutyl-6-(pyridin-2-yl)-1H-imidazo[4,5-c]pyridin-1-yl)cyclohexyl)thiazole-2-carboxamide]	–	0.5 to 1	E
COc1cc2c(cn1)nc(-c1ccccc1F)n2[C@H]1C[C@H](O)C[C@@H](NC(=O)c2ncc(Cl)s2)C1 [Example 277, 5-chloro-N-((1S,3R,5R)-3-(2-(2-fluorophenyl)-6-methoxy-1H-imidazo[4,5-c]pyridin-1-yl)-5-hydroxycyclohexyl)thiazole-2-carboxamide]	–	> 1	E
CC(C)Cc1nc2cnc(-c3nc[nH]n3)cc2n1[C@H]1C[C@H](O)C[C@@H](NC(=O)c2ncc(Cl)s2)C1 [Example 257, 5-chloro-N-((1S,3R,5R)-3-hydroxy-5-(2-isobutyl-6-(1H-1,2,4-triazol-3-yl)-1H-imidazo[4,5-c]pyridin-1-yl)cyclohexyl)thiazole-2-carboxamide]	–	0.5 to 1	E
O=C(N[C@@H]1CCC[C@H](n2c(-c3ccccc3F)nc3cnc(-c4ccccn4)cc32)[C@H]1O)c1ncc(Cl)s1 [Example 241, 5-chloro-N-((1R,2S,3S)-3-(2-(2-fluorophenyl)-6-(pyridin-2-yl)-1H-imidazo[4,5-c]pyridin-1-yl)-2-hydroxycyclohexyl)thiazole-2-carboxamide]	0.1 to 0.5	0.1 to 0.5	–
CNc1cc2c(cn1)nc(-c1ccccc1F)n2[C@H]1C[C@H](O)C[C@@H](NC(=O)c2ncc(Cl)s2)C1 [Example 273, 5-chloro-N-((1S,3R,5R)-3-(2-(2-fluorophenyl)-6-(methylamino)-1H-imidazo[4,5-c]pyridin-1-yl)-5-hydroxycyclohexyl)thiazole-2-carboxamide]	–	0.5 to 1	E
CC(C)Cc1nc2cnc(N3CCC[C@@H]3C(C)(C)O)cc2n1[C@@H]1CCC[C@H](NC(=O)c2ncc(Cl)s2)C1 [Example 304, 5-chloro-N-((1S,3R)-3-(6-((R)-2-(2-hydroxypropan-2-yl)pyrrolidin-1-yl)-2-isobutyl-1H-imidazo[4,5-c]pyridin-1-yl)cyclohexyl)thiazole-2-carboxamide]	–	> 1	E
Nc1cc2c(cn1)nc(-c1ccccc1F)n2[C@H]1C[C@H](O)C[C@@H](NC(=O)c2ncc(Cl)s2)C1 [Example 269, N-((1S,3R,5R)-3-(6-amino-2-(2-fluorophenyl)-1H-imidazo[4,5-c]pyridin-1-yl)-5-hydroxycyclohexyl)-5-chlorothiazole-2-carboxamide]	> 1	> 1	–
CC(C)Cc1nc2cnc(N3CCC[C@@H]3C#N)cc2n1[C@@H]1CCC[C@H](NC(=O)c2ncc(Cl)s2)C1 [Example 310, 5-chloro-N-((1S,3R)-3-(6-((R)-2-cyanopyrrolidin-1-yl)-2-isobutyl-1H-imidazo[4,5-c]pyridin-1-yl)cyclohexyl)thiazole-2-carboxamide]	–	> 1	E
CC(C)Cc1nc2cnc(-c3ccccn3)cc2n1[C@H]1C[C@H](O)C[C@@H](NC(=O)c2ncc(Cl)s2)C1 (single isomer, unassigned) [Example 215]	–	0.5 to 1	E
O=C(N[C@@H]1C[C@@H](O)C[C@H](n2c(-c3ccccc3F)nc3cnc(F)cc32)C1)c1ncc(Cl)s1 [Example 275, 5-chloro-N-((1S,3R,5R)-3-(6-fluoro-2-(2-fluorophenyl)-1H-imidazo[4,5-c]pyridin-1-yl)-5-hydroxycyclohexyl)thiazole-2-carboxamide]	–	> 1	E
O=C(N[C@H]1CCC[C@@H](n2c(-c3ccccc3F)nc3cnc(C4CCCO4)cc32)C1)c1ncc(Cl)s1 (single isomer, unassigned) [Example 201]	–	0.5 to 1	E
O=C(NN1CCCC(n2c(-c3ccccn3)nc3cnc(-n4nccn4)cc32)C1)c1ncc(C(F)F)s1 (stereo not shown) [Example 137, 5-(difluoromethyl)-N-(3-(2-(pyridin-2-yl)-6-(2H-1,2,3-triazol-2-yl)-1H-imidazo[4,5-c]pyridin-1-yl)piperidin-1-yl)thiazole-2-carboxamide]	–	> 1	E

Continued, values first:

IC50 [1] [µM]	IC50 [2] [µM]	BCAT2 Cell Inhibition [1]	Compound
≤ 0.1	≤ 0.1	–	O=C(N[C@H]1CCC[C@@H](n2c(-c3ccccc3F)nc3ccc(-c4ncccn4)cc32)[C@@H]1O)c1ncc(Cl)s1 [Example 466, 5-chloro-N-((1S,2R,3R)-3-(2-(2-fluorophenyl)-6-(pyrimidin-2-yl)-1H-benzo[d]imidazol-1-yl)-2-hydroxycyclohexyl)thiazole-2-carboxamide]
–	> 1	E	CO[C@@H]1C[C@@H](NC(=O)c2ncc(Cl)s2)C[C@@H](n2c(CC(C)C)nc3cnc(-c4ncc(C)o4)cc32)C1 (single isomer, unassigned) [Example 428]
≤ 0.1	≤ 0.1	–	O=C(N[C@H]1CCC[C@@H](n2c(-c3ccccc3F)nc3ccc(-c4ncco4)cc32)[C@@H]1O)c1ncc(Cl)s1 [Example 465, 5-chloro-N-((1S,2R,3R)-3-(2-(2-fluorophenyl)-6-(oxazol-2-yl)-1H-benzo[d]imidazol-1-yl)-2-hydroxycyclohexyl)thiazole-2-carboxamide]
–	> 1	E	COC(=O)N[C@H](c1nc2cnc(-c3nc[nH]n3)cc2n1[C@@H]1CCC[C@H](NC(=O)c2ncc(Cl)s2)C1)C(C)C [Example 370, methyl ((S)-1-(1-((1R,3S)-3-(5-chlorothiazole-2-carboxamido)cyclohexyl)-6-(1H-1,2,4-triazol-3-yl)-1H-imidazo[4,5-c]pyridin-2-yl)-2-methylpropyl)carbamate]
0.1 to 0.5	≤ 0.1	–	CS(=O)(=O)N1C[C@@H](NC(=O)c2ccc(Cl)s2)C[C@@H](n2c(-c3ccccc3F)nc3cnc(-c4nc[nH]n4)cc32)C1 [Example 459, 5-chloro-N-((3S,5R)-5-(2-(2-fluorophenyl)-6-(1H-1,2,4-triazol-3-yl)-1H-imidazo[4,5-c]pyridin-1-yl)-1-(methylsulfonyl)piperidin-3-yl)thiophene-2-carboxamide]
> 1	0.5 to 1	–	CO[C@@H]1C[C@H](NC(=O)c2ncc(Cl)s2)C[C@H](n2c(CC(C)C)nc3cnc(-c4nc[nH]n4)cc32)C1 (stereo in doubt) [Example 431, 5-chloro-N-((1R,3S,5R)-3-(2-isobutyl-6-(1H-1,2,4-triazol-3-yl)-1H-imidazo[4,5-c]pyridin-1-yl)-5-methoxycyclohexyl)thiazole-2-carboxamide]
–	0.1 to 0.5	E	CC(C)Cc1nc2cnc(-n3cc(C(C)O)nn3)cc2n1[C@@H]1CCC[C@H](NC(=O)c2ncc(Cl)s2)C1 (stereo partly drawn) [Example 359, 5-chloro-N-((1S,3R)-3-(6-(4-(1-hydroxyethyl)-1H-1,2,3-triazol-1-yl)-2-isobutyl-1H-imidazo[4,5-c]pyridin-1-yl)cyclohexyl)thiazole-2-carboxamide]
–	> 1	E	CC(C)Cc1nc2cnc(-c3cccc(C#N)n3)cc2n1[C@H]1CCC[C@@H](NC(=O)c2ncc(Cl)s2)[C@@H]1O [Example 391, 5-chloro-N-((1R,2S,3S)-3-(6-(6-cyanopyridin-2-yl)-2-isobutyl-1H-imidazo[4,5-c]pyridin-1-yl)-2-hydroxycyclohexyl)thiazole-2-carboxamide]
–	> 1	E	CO[C@@H]1C[C@@H](NC(=O)c2ncc(Cl)s2)C[C@@H](n2c(CC(C)C)nc3cnc(-n4cncn4)cc32)C1 [Example 418, 5-chloro-N-((1S,3R,5R)-3-(2-isobutyl-6-(1H-1,2,4-triazol-1-yl)-1H-imidazo[4,5-c]pyridin-1-yl)-5-methoxycyclohexyl)thiazole-2-carboxamide]
